Results taken from patent EP1200395B1, “UREA DERIVATIVES AS INHIBITORS OF CCR-3 RECEPTOR” (KIRIN BEER KABUSHIKI KAISHA, priority 1999, dated 2001).
Structures can show the parent of a compound that is named as a salt.

Molecular target: T1, CCR-3 (Homo sapiens, UniProt P51677)
T1 sequence (P51677 1-355): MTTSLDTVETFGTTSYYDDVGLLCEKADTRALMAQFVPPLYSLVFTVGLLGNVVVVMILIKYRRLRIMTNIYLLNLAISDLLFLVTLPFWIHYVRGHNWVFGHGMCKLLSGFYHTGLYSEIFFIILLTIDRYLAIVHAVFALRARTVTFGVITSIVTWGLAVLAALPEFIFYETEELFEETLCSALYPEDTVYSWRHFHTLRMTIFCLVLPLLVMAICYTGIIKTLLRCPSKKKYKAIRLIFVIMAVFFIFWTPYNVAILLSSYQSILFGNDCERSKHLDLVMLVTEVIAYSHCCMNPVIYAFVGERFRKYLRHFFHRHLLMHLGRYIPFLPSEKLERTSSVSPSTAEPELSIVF
Experiment: Eotaxin-induced chemotaxis of CCR-3 transfectant cells (CCR3/U937)
Assay type: cell-based
Parameters: expressed in transfected cells; host or cells: U937
Conditions: 10 µM test compound, eotaxin 1 x 10^-9 M; for inhibition at 10 µM: U-937

Compound	Chemotaxis Assay 10 µM (inhibition %) (CCR3/U937 cells (Table 3a))	other results
CCN(CCCNC(=O)Nc1ccccc1)C1CCc2ccccc21 (centres unmarked) [Compound 234]	89%	
O=C(O)CCCN(CCCNC(=O)Nc1ccc(C(=O)O)cc1)C1CCCc2ccccc21 (centres unmarked) [Compound 235]	91%	
CCOC(=O)c1cccc(NC(=O)NCCCN(CCCC(=O)O)C2CCCc3ccccc32)c1 (centres unmarked) [Compound 236]	97%	
O=C(NCCCN(CCc1ccc(Cl)cc1)CCc1ccc(Cl)cc1)Nc1ccccc1 [Compound 238, [3-(Phenylureido)propyl]bis[2-(4-chlorophenyl)ethyl]amine]		inhibition at 10 µM (CCR3/U937 cells (Table 3a)): 69%
CC(C)CN(CCCNC(=O)Nc1ccccc1)CCc1ccc(Cl)cc1 [Compound 239]	100%	
O=C(NCCCN(CCc1ccc(Cl)cc1)CC1CCCCC1)Nc1ccccc1 [Compound 240]	86%	
COC(=O)CCCCN(CCCNC(=O)Nc1ccccc1)CCc1ccc(Cl)cc1 [Compound 241]	100%	
CCOC(=O)CCCCCN(CCCNC(=O)Nc1ccccc1)CCc1ccc(Cl)cc1 [Compound 242]	73%	
NC(=O)CCN(CCCNC(=O)Nc1ccccc1)CCc1ccc(Cl)cc1 [Compound 243]	84%	
CC(=O)OCCN(CCCNC(=O)Nc1ccccc1)CCc1ccc(Cl)cc1 [Compound 244]	81%	
COC(=O)CN(CCCNC(=O)Nc1ccccc1)CCc1ccc(Cl)cc1 [Compound 245]	100%	
C[C@H](c1ccc(Br)cc1)N(CCCNC(=O)Nc1ccc(Br)cc1)CCCC(=O)O [Compound 258, 4-[[3-(4-Bromophenylureido)propyl] [(1R)-1-(4-bromophenyl)ethyl]amino]butanoic acid]		inhibition at 10 µM (CCR3/U937 cells (Table 3a)): 100%
CC(c1ccc([N+](=O)[O-])cc1)N(CCCNC(=O)Nc1ccc(Br)cc1)CCCC(=O)O (centres unmarked) [Compound 259]	100%	
N#Cc1cccc(NC(=O)NCCCN(CCCC(=O)O)C2CCCc3ccccc32)c1 (centres unmarked) [Compound 260]	100%	
COc1cccc(NC(=O)NCCCN(CCCC(=O)O)C2CCCc3ccccc32)c1 (centres unmarked) [Compound 261]	100%	
CC(=O)c1cccc(NC(=O)NCCCN(CCCC(=O)O)C2CCCc3ccccc32)c1 (centres unmarked) [Compound 262]	62%	
CSc1cccc(NC(=O)NCCCN(CCCC(=O)O)C2CCCc3ccccc32)c1 (centres unmarked) [Compound 263]	100%	
CSc1ccc(NC(=O)NCCCN(CCCC(=O)O)C2CCCc3ccccc32)cc1 (centres unmarked) [Compound 264]	100%	
O=C(O)CCCN(CCCNC(=O)Nc1ccc2ccccc2c1)C1CCCc2ccccc21 (centres unmarked) [Compound 265]	95%	
O=C(O)CCCN(CCCNC(=O)Nc1ccc(OC(F)(F)F)cc1)C1CCCc2ccccc21 (centres unmarked) [Compound 266]	100%	
CC(c1cccc2ccccc12)N(CCCNC(=O)Nc1ccc(Br)cc1)CCCC(=O)O (centres unmarked) [Compound 268]	100%	
CC(c1ccc(F)cc1)N(CCCNC(=O)Nc1ccc(Br)cc1)CCCC(=O)O (centres unmarked) [Compound 269, 4-[[3-(4-Bromophenylureido)propyl][1-(4-fluorophenyl)ethyl]amino]butanoic acid]		inhibition at 10 µM (CCR3/U937 cells (Table 3a)): 100%
CC(c1ccc2ccccc2c1)N(CCCNC(=O)Nc1ccc(Br)cc1)CCCC(=O)O (centres unmarked) [Compound 270]	100%	
CCC(c1ccccc1)N(CCCNC(=O)Nc1ccc(Br)cc1)CCCC(=O)O (centres unmarked) [Compound 271]	100%	
CC(c1ccc(Cl)cc1)N(CCCNC(=O)Nc1ccc(Br)cc1)CCCC(=O)O (centres unmarked) [Compound 272, 4-[[3-(4-Bromophenylureido)propyl][1-(4-chlorophenyl)ethyl]amino]butanoic acid]		inhibition at 10 µM (CCR3/U937 cells (Table 3a)): 89%
O=C(O)CCCN(CCCNC(=O)Nc1ccc(Br)cc1)C1c2ccccc2CC1O (centres unmarked) [Compound 273]	88%	
COC(=O)CCCN(CCCNC(=O)Nc1ccccc1)CCc1ccc(Cl)cc1 [Compound 274]	60%	

Compound	Chemotaxis Assay 10 µM (inhibition %) (CCR3/U937 cells (Table 3a))	other results
COCCN(CCCNC(=O)Nc1ccccc1)CCc1ccc(Cl)cc1 [Compound 275]	100%	
CC(C)N(CCCNC(=O)Nc1ccccc1)CCc1ccc(Cl)cc1 [Compound 276]	100%	
O=C(O)CCCN(CCCNC(=O)Nc1ccc(-c2ccccc2)cc1)C1CCCc2ccccc21 (centres unmarked) [Compound 277]	76%	
CC(=O)c1ccc(NC(=O)NCCCN(CCCC(=O)O)C2CCCc3ccccc32)cc1 (centres unmarked) [Compound 278]	100%	
O=C(NCCCN(CCc1cccc(Cl)c1)Cc1ccccc1)Nc1ccccc1 [Compound 280]	60%	
N#Cc1ccc(CN(CCCNC(=O)Nc2ccccc2)CCc2ccc(Cl)cc2)cc1 [Compound 291]	53%	
COc1cc(CN(CCCNC(=O)Nc2ccccc2)CCc2ccc(Cl)cc2)cc(OC)c1 [Compound 292]	56%	
C[C@@H](c1ccc(Br)cc1)N(CCCNC(=O)Nc1ccc(Br)cc1)CCCC(=O)O [Compound 293, 4-[[3-(4-Bromophenylureido)propyl][(1S)-1-(4-bromophenyl)ethyl]amino]butanoic acid]		inhibition at 10 µM (CCR3/U937 cells (Table 3a)): 95%
CCCC[N+](CC)(CCCNC(=O)Nc1ccc(Br)cc1)CCc1ccc(Cl)cc1.[I-] (centres unmarked) [Compound 294]		Chemotaxis Assay 10 µM (inhibition %) (CCR3/U937 cells (Table 3c)): 100%
CCC[N+](CC)(CCCNC(=O)Nc1ccc(Br)cc1)CCc1ccc(Cl)cc1.[I-] (centres unmarked) [Compound 295]		Chemotaxis Assay 10 µM (inhibition %) (CCR3/U937 cells (Table 3c)): 100%
Cc1ccc(C[N+](CCCNC(=O)Nc2ccccc2)(CCc2ccc(Cl)cc2)Cc2ccc(C)cc2)cc1 [Compound 296, [3-(Phenylureido)propyl][2-(4-chlorophenyl)ethyl]bis(4-methylbenzyl)ammonium iodide]		inhibition at 10 µM (CCR3/U937 cells (Table 3c)): 67%
CC[N+](CCCNC(=O)Nc1ccccc1)(CCc1ccc(Cl)cc1)Cc1ccc(C)cc1.[I-] (centres unmarked) [Compound 297]		Chemotaxis Assay 10 µM (inhibition %) (CCR3/U937 cells (Table 3c)): 100%
CC[N+](CCCO)(CCCNC(=O)Nc1ccccc1)CCc1ccc(Cl)cc1.[I-] (centres unmarked) [Compound 299]		Chemotaxis Assay 10 µM (inhibition %) (CCR3/U937 cells (Table 3c)): 100%
CC[N+](CCCNC(=O)Nc1ccccc1)(CCc1ccc(Cl)cc1)CC(N)=O.[I-] (centres unmarked) [Compound 300]		Chemotaxis Assay 10 µM (inhibition %) (CCR3/U937 cells (Table 3c)): 100%
C=CC[N+](CC)(CCCNC(=O)Nc1ccccc1)CCc1ccc(Cl)cc1.[I-] (centres unmarked) [Compound 301]		Chemotaxis Assay 10 µM (inhibition %) (CCR3/U937 cells (Table 3c)): 100%
CC[N+](CCCNC(=O)Nc1ccccc1)(CCc1ccc(Cl)cc1)Cc1ccccc1 (centres unmarked) [Compound 302, [3-(Phenylureido)propyl][2-(4-chlorophenyl)ethyl](benzyl)ethylammonium iodide]		inhibition at 10 µM (CCR3/U937 cells (Table 3c)): 100%
CC[N+](CCCNC(=O)Nc1ccccc1)(CCc1ccc(Cl)cc1)Cc1ccc(C(=O)OC)cc1.[I-] (centres unmarked) [Compound 303]		Chemotaxis Assay 10 µM (inhibition %) (CCR3/U937 cells (Table 3c)): 100%
CC[N+](CC)(CCCNC(=O)Nc1ccccc1)CCc1ccc(OC)cc1.[I-] [Compound 304]		Chemotaxis Assay 10 µM (inhibition %) (CCR3/U937 cells (Table 3c)): 66%
CC[N+](CC)(CCCNC(=O)Nc1ccccc1)Cc1ccccc1.[I-] [Compound 305]		Chemotaxis Assay 10 µM (inhibition %) (CCR3/U937 cells (Table 3c)): 100%
CC[N+](CC)(CCCNC(=O)Nc1ccccc1)CCc1ccc(F)cc1.[I-] [Compound 306]		Chemotaxis Assay 10 µM (inhibition %) (CCR3/U937 cells (Table 3c)): 100%
CC[N+](CC)(CCCNC(=O)Nc1ccccc1)CCc1ccc(C)cc1.[I-] [Compound 307]		Chemotaxis Assay 10 µM (inhibition %) (CCR3/U937 cells (Table 3c)): 92%
CC[N+](CC)(CCCNC(=O)Nc1ccccc1)CCc1ccccc1Cl.[I-] [Compound 308]		Chemotaxis Assay 10 µM (inhibition %) (CCR3/U937 cells (Table 3c)): 100%
CC[N+](CC)(CCCNC(=O)Nc1ccccc1)CCc1cccc(Cl)c1 [Compound 309, [3-(Phenylureido)propyl][2-(3-chlorophenyl)ethyl]diethylammonium iodide]		inhibition at 10 µM (CCR3/U937 cells (Table 3c)): 100%
CC[N+](CCCNC(=O)Nc1ccc(Br)cc1)(CCCC(=O)O)[C@@H](C)c1ccccc1 (stereo partly drawn) [Compound 315, [3-(4-Bromophenylureido)propyl][(1S)-1-phenylethyl][3-(carboxy)propyl]ethylammonium trifluoroacetate]		inhibition at 10 µM (CCR3/U937 cells (Table 3c)): 63%
CC[N+](CCCNC(=O)Nc1ccc(Br)cc1)(CCCC(=O)O)[C@H](C)c1ccccc1 (stereo partly drawn) [Compound 316, [3-(4-Bromophenylureido)propyl][(1R)-1-phenylethyl][3-(carboxy)propyl]ethylammonium trifluoroacetate]		inhibition at 10 µM (CCR3/U937 cells (Table 3c)): 82%
CC[N+](CCCCC(=O)OC)(CCCNC(=O)Nc1ccccc1)CCc1ccc(Cl)cc1 (centres unmarked) [Compound 320, [3-(Phenylureido)propyl][2-(4-chlorophenyl)ethyl][4-(methoxycarbonyl)butyl] ethylammonium iodide]		inhibition at 10 µM (CCR3/U937 cells (Table 3c)): 100%
